One series relates to MDA-MB-231. Put plainly: Cytotoxicity against ERalpha and ERbeta-deficient human MDA-MB-231 cells assessed as growth inhibition after 72 hrs by MTT assay. It is filed as functional, cell-based. Conditions: MDA-MB-231, 72 h.
In series [1] the target is Estrogen receptor beta (Homo sapiens) (UniProt Q92731). Put plainly: Agonist activity at Gal4 DBD-fused human ERbeta LBD expressed in HEK293T cells at 10 uM after 40 hrs by luciferase reporter gene assay. It is filed as cell-based. Conditions: HEK-293T. Background: In a reporter assay the amount or activity of a reporter protein is the signal.
Estrogen receptor beta (Homo sapiens), sequence (Q92731 whole entry, the tested form may be a part): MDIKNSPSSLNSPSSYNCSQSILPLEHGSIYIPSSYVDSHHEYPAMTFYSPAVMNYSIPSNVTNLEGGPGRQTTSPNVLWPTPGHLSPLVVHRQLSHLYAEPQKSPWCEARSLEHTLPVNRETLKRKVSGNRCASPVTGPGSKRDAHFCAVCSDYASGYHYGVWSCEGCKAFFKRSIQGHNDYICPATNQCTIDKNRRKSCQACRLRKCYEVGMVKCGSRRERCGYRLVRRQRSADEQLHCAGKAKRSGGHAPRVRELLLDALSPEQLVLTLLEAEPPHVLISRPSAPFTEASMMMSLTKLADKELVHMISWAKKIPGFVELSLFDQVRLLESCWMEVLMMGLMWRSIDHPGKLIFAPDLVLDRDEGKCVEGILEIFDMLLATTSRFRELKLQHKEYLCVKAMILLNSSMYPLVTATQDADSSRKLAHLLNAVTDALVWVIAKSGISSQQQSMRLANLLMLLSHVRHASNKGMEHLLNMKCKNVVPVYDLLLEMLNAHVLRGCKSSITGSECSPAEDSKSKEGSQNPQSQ
Another series addresses T1, Histone deacetylase 8 (Homo sapiens, UniProt Q9BY41).
T1 sequence (Q9BY41 whole entry): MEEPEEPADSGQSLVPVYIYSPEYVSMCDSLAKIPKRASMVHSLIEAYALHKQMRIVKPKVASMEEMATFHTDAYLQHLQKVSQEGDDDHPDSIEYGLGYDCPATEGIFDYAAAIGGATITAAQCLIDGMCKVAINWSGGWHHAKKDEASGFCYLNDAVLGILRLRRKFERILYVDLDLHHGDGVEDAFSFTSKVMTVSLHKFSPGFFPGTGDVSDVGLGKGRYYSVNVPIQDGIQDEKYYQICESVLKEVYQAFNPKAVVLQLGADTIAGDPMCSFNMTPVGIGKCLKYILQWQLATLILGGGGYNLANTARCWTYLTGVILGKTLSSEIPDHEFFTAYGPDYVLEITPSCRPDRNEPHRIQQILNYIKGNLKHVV
Put plainly: Inhibition of human recombinant HDAC8 after 30 mins by fluorescence assay.

For series [2], the target named is T2, Protein deacetylase HDAC6 (Homo sapiens, UniProt Q9UBN7).
T2 sequence (Q9UBN7 whole entry): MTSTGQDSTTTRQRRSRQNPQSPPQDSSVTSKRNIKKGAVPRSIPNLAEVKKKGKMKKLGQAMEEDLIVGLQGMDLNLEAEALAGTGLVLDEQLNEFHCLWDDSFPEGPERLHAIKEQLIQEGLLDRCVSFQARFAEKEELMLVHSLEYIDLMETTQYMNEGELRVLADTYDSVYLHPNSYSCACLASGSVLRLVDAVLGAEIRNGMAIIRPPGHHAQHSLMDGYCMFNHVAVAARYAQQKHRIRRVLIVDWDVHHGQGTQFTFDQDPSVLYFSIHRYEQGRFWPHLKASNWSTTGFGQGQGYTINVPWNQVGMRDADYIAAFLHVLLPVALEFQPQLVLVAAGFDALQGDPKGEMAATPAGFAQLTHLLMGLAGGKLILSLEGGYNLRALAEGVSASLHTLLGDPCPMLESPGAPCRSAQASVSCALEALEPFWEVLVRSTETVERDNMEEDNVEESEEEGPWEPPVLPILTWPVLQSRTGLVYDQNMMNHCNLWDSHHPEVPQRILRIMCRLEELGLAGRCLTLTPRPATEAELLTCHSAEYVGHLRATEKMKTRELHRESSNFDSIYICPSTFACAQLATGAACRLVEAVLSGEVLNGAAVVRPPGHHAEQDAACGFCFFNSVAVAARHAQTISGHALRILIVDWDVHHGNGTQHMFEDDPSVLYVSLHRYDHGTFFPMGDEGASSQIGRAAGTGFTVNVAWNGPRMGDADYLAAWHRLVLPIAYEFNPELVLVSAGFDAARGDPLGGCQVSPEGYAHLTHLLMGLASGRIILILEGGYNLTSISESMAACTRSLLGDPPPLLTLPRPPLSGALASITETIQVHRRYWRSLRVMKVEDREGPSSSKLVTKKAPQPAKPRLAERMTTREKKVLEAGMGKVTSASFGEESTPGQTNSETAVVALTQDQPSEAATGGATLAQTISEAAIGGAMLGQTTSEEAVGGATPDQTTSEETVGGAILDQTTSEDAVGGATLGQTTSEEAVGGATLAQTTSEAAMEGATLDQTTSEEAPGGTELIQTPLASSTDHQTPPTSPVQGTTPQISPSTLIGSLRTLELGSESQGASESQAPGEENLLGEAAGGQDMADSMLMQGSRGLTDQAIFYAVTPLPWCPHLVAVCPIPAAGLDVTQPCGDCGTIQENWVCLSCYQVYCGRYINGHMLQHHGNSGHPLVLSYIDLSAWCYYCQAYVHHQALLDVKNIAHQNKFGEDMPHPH
Put plainly: Inhibition of human recombinant HDAC6 after 30 mins by fluorescence assay.

The target in a further series is Histone deacetylase 1 (Homo sapiens, UniProt Q13547). In words: Inhibition of human recombinant HDAC1 after 30 mins by fluorescence assay.
Histone deacetylase 1, sequence (Q13547 whole entry): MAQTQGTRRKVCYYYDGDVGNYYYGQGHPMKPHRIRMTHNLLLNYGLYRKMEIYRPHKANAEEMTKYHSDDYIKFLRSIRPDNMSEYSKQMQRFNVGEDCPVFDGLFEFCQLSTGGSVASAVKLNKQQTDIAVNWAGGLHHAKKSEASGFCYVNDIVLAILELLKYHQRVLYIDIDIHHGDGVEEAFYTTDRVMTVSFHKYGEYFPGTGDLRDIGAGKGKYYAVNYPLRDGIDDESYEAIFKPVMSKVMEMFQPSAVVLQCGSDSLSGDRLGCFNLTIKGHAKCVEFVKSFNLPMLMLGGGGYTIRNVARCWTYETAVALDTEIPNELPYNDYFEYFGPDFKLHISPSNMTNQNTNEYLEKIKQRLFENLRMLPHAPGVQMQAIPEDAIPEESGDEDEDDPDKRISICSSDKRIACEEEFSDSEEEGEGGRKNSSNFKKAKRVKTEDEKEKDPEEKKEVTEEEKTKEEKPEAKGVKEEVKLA
The subject of series [3] is MCF7. Put plainly: Cytotoxicity against human MCF7 cells expressing ERalpha and ERbeta assessed as growth inhibition after 72 hrs by MTT assay. Format: functional, cell-based. Conditions: MCF7, 72 h. (In general: Tetrazolium assays rely on reduction of a dye to a coloured formazan, in cell work by metabolically active cells.)
Another series deals with DU-145. In words: Cytotoxicity against ERalpha-deficient human DU145 cells expressing ERbeta assessed as growth inhibition after 72 hrs by MTT assay. Conditions: DU-145, 72 h. It is filed as functional, cell-based.
Another series has as its system Vero. Put plainly: Cytotoxicity against african green monkey Vero cells assessed as growth inhibition after 72 hrs by MTT assay. Format: ADME, cell-based. Conditions: Chlorocebus sabaeus.
A further series concerns the target T3, Estrogen receptor (Homo sapiens, UniProt P03372).
T3 sequence (P03372 whole entry): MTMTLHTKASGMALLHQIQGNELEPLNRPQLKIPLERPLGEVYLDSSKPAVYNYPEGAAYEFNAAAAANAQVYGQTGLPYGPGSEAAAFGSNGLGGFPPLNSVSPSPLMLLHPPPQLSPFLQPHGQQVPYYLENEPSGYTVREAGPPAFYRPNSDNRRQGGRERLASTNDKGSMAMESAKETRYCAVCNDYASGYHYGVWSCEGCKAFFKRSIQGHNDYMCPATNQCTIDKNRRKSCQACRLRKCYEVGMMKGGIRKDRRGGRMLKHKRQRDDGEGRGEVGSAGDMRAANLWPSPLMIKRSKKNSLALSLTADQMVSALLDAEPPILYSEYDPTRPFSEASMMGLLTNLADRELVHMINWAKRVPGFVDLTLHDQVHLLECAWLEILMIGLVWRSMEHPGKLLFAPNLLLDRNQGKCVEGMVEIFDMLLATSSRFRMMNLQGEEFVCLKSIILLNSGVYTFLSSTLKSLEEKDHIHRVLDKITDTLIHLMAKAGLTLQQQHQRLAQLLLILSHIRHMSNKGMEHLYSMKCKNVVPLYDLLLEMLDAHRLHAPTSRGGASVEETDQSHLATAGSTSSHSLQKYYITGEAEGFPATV
In words: Antagonist activity at Gal4 DBD-fused human ERalpha LBD expressed in HEK293T cells assessed as inhibition of estradiol-induced transcriptional activation after 20 hrs by luciferase reporter gene assay. It is filed as cell-based, HEK-293T.

The nature of series [4]: Therapeutic index, ratio of IC50 for african green monkey Vero cells to IC50 for human MCF7 cells expressing ERalpha and ERbeta. The following applies: Vero cells versus MCF7 cells expressing ERalpha and ERbeta.
The subject of series [5] is MCF7. Put plainly: Ratio of tamoxifen IC50 to compound IC50 for human MCF7 cells expressing ERalpha and ERbeta. It is filed as functional.

SMILES strings stand for the structures. Active and inactive are the calls of the source. No cut-off for these calls is given here.

As to `C[C@]12CC[C@@H]3c4ccc(O)cc4CC[C@H]3[C@@H]1CC[C@@]2(O)c1cn(CCCCCCCC(=O)NO)nn1`, the half-inhibitory concentration (IC50) with MDA-MB-231 was 33.9 µM; at Histone deacetylase 8 it was 20 µM; in [2], 1.3 µM; on Histone deacetylase 1, 9 µM. In addition, in [1], the result was Active.

Turning to `C[C@]12CC[C@@H]3c4ccc(O)cc4CC[C@H]3[C@@H]1CC[C@@]2(O)c1cn(CCCCCCC(=O)NO)nn1`, the IC50 is 14.1 µM in the series with MDA-MB-231; 37.3 µM in the series with MCF7 [3]; 0.45 µM at Histone deacetylase 8; 0.013 µM in [2]; 0.028 µM on Histone deacetylase 1; 27 µM in the series with DU-145. Besides, the result in series [1] was Active.

`CC/C(=C(\c1ccccc1)c1ccc(OCCN(C)C)cc1)c1ccccc1` [TAMOXIFEN]: the results for the IC50 with MDA-MB-231, in the series with MCF7 [3] and in the series on Vero were 17 µM, 15.6 µM and 15.9 µM, respectively.

As for `CC/C(=C(\c1ccccc1)c1ccc(OCCN(C)Cc2ccc(-c3cn(CCCCCC(=O)NO)nn3)cc2)cc1)c1ccccc1`, the half-inhibitory concentration (IC50) stood at 10 µM in the series with MDA-MB-231; 7.2 µM in the series with MCF7 [3]; 0.567 µM in series [2]; 0.524 µM at Histone deacetylase 1; 0.248 µM on Estrogen receptor; 9.1 µM in the series with Vero. For the same compound, the IC50 in the series on DU-145 was found to be 20.6 µM. Further, the selectivity ratio in series [4] is 1.26. In the series on MCF7 [5], the “Ratio IC50” value worked out at 2.

Consider `CC(O)(CS(=O)(=O)c1ccc(F)cc1)C(=O)Nc1ccc(C#N)c(C(F)(F)F)c1` (configuration not stated) [BICALUTAMIDE], for which the IC50 with DU-145 was 18 µM.

Regarding `C#C[C@]1(O)CC[C@H]2[C@@H]3CCc4cc(O)ccc4[C@H]3CC[C@@]21C` [ETHINYL ESTRADIOL], the IC50 with MDA-MB-231 stood at 32.9 µM.

Consider `C[C@]12CC[C@@H]3c4ccc(O)cc4CC[C@H]3[C@@H]1CC[C@@]2(O)c1cn(CCCCCC(=O)NO)nn1`, for which the IC50 was 22.6 µM with MDA-MB-231; 4 µM on Histone deacetylase 8; 0.032 µM in [2]; 0.075 µM on Histone deacetylase 1; 26.9 µM with DU-145. In series [1], the result was Active.

For `C[C@]12CC[C@@H]3c4ccc(O)cc4CC[C@H]3[C@@H]1CC[C@@]2(O)c1cn(CCCC(=O)NO)nn1`, the IC50 in the series on MDA-MB-231 was 28.4 µM; with MCF7 [3], 22 µM; at Histone deacetylase 8, 11 µM; in [2] it was 0.008 µM; on Histone deacetylase 1 it was 0.015 µM. In addition, the outcome in series [1] was Active. Further, the selectivity ratio in series [4] was > 1.82.

For the compound `CC/C(=C(\c1ccccc1)c1ccc(OCCN(C)Cc2ccc(NC(=O)CCCCCCC(=O)NO)cc2)cc1)c1ccccc1`, the IC50 with MDA-MB-231 was 8.1 µM; with MCF7 [3], 3.8 µM; in series [2] it was 0.221 µM; on Histone deacetylase 1 it was 2.7 µM; on Estrogen receptor, 0.127 µM; in the series on Vero it was 3.6 µM. Moreover, the IC50 in the series on DU-145 stood at 14.1 µM. Further, in [4], the selectivity ratio was 0.95. Further, the “Ratio IC50” value with MCF7 [5] came out at 4.

On to `C[C@]12CC[C@@H]3c4ccc(O)cc4CC[C@H]3[C@@H]1CC[C@@]2(O)c1cn(CCCCC(=O)NO)nn1`, for which, in [1], the result was Active. For the same compound, the IC50 on Histone deacetylase 8 is 5 µM; in series [2] it was 0.14 µM; on Histone deacetylase 1 it was 0.4 µM.

What is called IC50 is the concentration at which inhibition is half-maximal.

The values above are taken from ChEMBL document CHEMBL2401729, “Histone deacetylase inhibitors equipped with estrogen receptor modulation activity” (J Med Chem, 2013).
